Measured values: US7244743B2, “Non-peptidic BRS-3 agonists” (Solvay Pharmaceuticals GmbH, priority 2002, dated 2007)
Square brackets hold non-standard residues; d marks the D form. Peptide text beside a SMILES is read from it. * marks the point of attachment. NHPhenethyl = c1ccc(CCN*)cc1; PhAc = O=C(Cc1ccccc1)*

Tests used:
[1] = target: T1, human BRS-3 (subtype 3 of the human bombesin receptor) (Homo sapiens, UniProt P32247); test: FLIPR test: agonistic activity on BRS-3 (Ca2+ fluorescence, Fluo4) in transfected CHO cells; format: cell-based; settings: for EC50: CHO-K1 cells co-expressing human BRS-3 and human Gα16, 50% activation relative to maximum response of nonapeptide [D-Phe6,β-Ala11,Phe13,Nle14]Bn(6-14) (=100%)
T1 construct: expressed in transfected cells; host or cells: CHO-K1 cells, stably transfected with RD-HGA16 (human Gα16) and pcDNA3.1(-)-BRS-3; single-cell clone selected
T1 sequence (P32247 1-399): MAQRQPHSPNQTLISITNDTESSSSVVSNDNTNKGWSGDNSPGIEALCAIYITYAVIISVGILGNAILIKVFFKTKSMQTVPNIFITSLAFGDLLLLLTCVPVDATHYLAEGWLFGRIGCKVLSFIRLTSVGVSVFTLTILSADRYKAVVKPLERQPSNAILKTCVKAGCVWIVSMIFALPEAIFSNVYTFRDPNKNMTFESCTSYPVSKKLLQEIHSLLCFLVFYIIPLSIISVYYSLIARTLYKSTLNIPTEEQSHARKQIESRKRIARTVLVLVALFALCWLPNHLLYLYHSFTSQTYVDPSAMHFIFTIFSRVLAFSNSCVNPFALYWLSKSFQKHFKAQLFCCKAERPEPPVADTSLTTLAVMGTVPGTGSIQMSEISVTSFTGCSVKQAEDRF
Source text: For this, CHO cells (=“Chinese hamster ovary cells”) initially were transfected in known manner with an expression vector for the subtype 3 of the human bombesin receptor, i.e. BRS-3.
The cDNA of the human BRS-3 (nucleotide sequence under GenBank Accession No. L08893) was excised from the plasmid vector pGEM4 (from Promega, USA) using the restriction endonuclease EcoRI and was subcloned into the expression vector pcDNA3.1(−) (from Invitrogen, USA). CHO-K1 cells, which were already stably transfected with the expression vector RD-HGA16, which bears the cDNA sequence of the human Gα16 protein (nucleotide sequence under GenBank Accession No. M63904), were placed in sample plates with 24 sample wells (“24-well plate”) and incubated overnight under sterile conditions in an air-humidified incubator at 37° C. and 5% CO2 in F-12 medium plus Glutamax-I (from GibcoBRL, cat. No. 31765), to which 10%-strength foetal calf serum (inactivated at 56° C. for 1 h, from GibcoBRL), 25 μg/ml gentamicin (from GibcoBRL) and 0.2 mg/ml hygromycin B (from GibcoBRL) had been added. The next day, the cells were transfected with the BRS-3 expression vector by adding, using the “Effectene Transfection Reagent” (from Qiagen), 12 μl of a solution containing 0.3 μg/μl DNA of the expression vector per sample well. One day after transfection, the culture medium was replaced by selection medium. For this, the transfected cells, which each simultaneously express BRS-3 and the human Gα16 protein, were cultivated under sterile conditions at 37° C. and 5% CO2 in F-12 medium plus Glutamax-I (from GibcoBRL, cat. No. 31765), to which 10%-strength foetal calf serum (inactivated at 56° C. for 1 h, from GibcoBRL), 25 μg/ml gentamicin (from GibcoBRL), 0.2 mg/ml hygromycin B (from GibcoBRL) and 0.5 mg/ml geneticin (from GibcoBRL) had been added. To optimize the cell test, the cells with the highest receptor expression rate were selected. For this, the transfected cells were diluted 1:30,000 with the selection medium described above and were placed in sample plates with 96 sample wells (“96-well plate”). The cells were incubated overnight at 37° C. and 5% CO2, then those sample wells which contained only an individual cell were selected. These cells were first started in sample plates with 24 sample wells (“24-well plate”) and then cultivated in Costar plastic flasks (first 25 ml and then 225 ml). The BRS-3 receptor expression of the respective individual cell clone was estimated by determination of the EC50 value of the synthetic nonapeptide [D-Phe^6,β-Ala^11,Phe^13,Nle^14]Bn(6-14) as ligand (for performance of the test see below). The transfected cells were stored at −80° C. in aliquots of 1.8 ml medium each with 10% dimethyl sulfoxide (=DMSO) (cell concentration 1×10^6 cells/ml). For cultivation, a frozen aliquot was heated to 37° C., transferred into a Costar plastic flask (225 ml) and diluted with 50 ml of the selection medium described above. The medium was first changed once after 30 minutes' incubation. On each following first to third day, the medium was removed, the adherent cells (40-95% confluence) were washed with PBS Dulbecco's (from GibcoBRL) and detached from the bottom of the flask by a 2-minute treatment with trypsin-EDTA solution (from GibcoBRL) at 37° C. If the cells were to be cultivated further, they were transferred into a new plastic flask with fresh medium. If experiments were to be carried out with the cells, the cells were transferred into Costar sample plates with 96 sample wells, a clear baseplate and cover (“Costar 96-well assay plates”, from Coming), once the cell concentration had been set to 1.2×10^4 cells/ml.
BRS-3 is coupled via G-proteins to the Ca^2+-signal transduction path of the CHO cell. If an agonist binds to the receptor, the phospholipase C is activated via the G-protein, and then in turn catalyses the synthesis of water-soluble inositol phosphates. […]

Compound | EC50 [1] [nM] | melting point [°C] | peptide concentration at which the maximum change in fluorescence had already been observed ([1]; reference dilution series on each plate, adopted as 100% value) [µM]
CC(NCc1ccc(Cl)cc1)C(=O)N[C@H](Cc1c[nH]c2ccccc12)C(=O)NCCc1ccccc1 (mixture of isomers) [Example 3, N1-phenethyl-(2R)-2-{1-[(4-chlorobenzyl)-amino]-ethylcarboxamido}-3-(1H-3-indolyl)-propanamide] | 4 | 107 to 110 | 
C[C@H](NC(=O)Cc1ccccc1)C(=O)N[C@H](Cc1c[nH]c2ccccc12)C(=O)NCCc1ccccc1 [Example 2, N1-phenethyl-(2R)-2-[(1S)-1-(benzylcarboxamido)-ethyl]-carboxamido-3-(1H-3-indolyl)-propanamide] (PhAc-Ala-[dW]-NHPhenethyl) | 2.1 | 205 to 207 | 
O=C(Cc1cccnc1)NNC(=O)N[C@H](Cc1c[nH]c2ccccc12)C(=O)NCCc1ccccc1 [Example 4, N1-phenethyl-(2R)-2-{N′-[2-(3-pyridyl)-ethanoyl]-hydrazino}-carboxamido-3-(1H-3-indolyl)-propanamide] | 1.4 | 116 to 120 | 
O=C(NNCc1ccc(Cl)cc1)N[C@H](Cc1c[nH]c2ccccc12)C(=O)NCCc1ccccc1 [Example 5, N1-phenethyl-(2R)-2-[N′-(4-chlorobenzyl)-hydrazino]-carboxamido-3-(1H-3-indolyl)-propanamide] | 6 | 75 to 80 | 
O=C(N/N=C/c1ccco1)N[C@H](Cc1c[nH]c2ccccc12)C(=O)NCCc1ccccc1 [Example 6, N1-phenethyl-(2R)-2-[N′-(furan-2-ylmethylene)-hydrazino]-carboxamido-3-(1H-3-indolyl)-propanamide] | 1.5 | 100 to 101 | 
O=C(CNCCc1ccccc1)NC(Cc1c[nH]c2ccccc12)C(=O)NCCc1ccccc1 (centres unmarked) [Example 24] | 17 |  | 
[D-Phe^6,β-Ala^11,Phe^13,Nle^14]Bn(6-14) [nonapeptide, reference compound] |  |  | ~16

The remaining lines, values ahead:

EC50 [1] [nM] | melting point [°C] | peptide concentration at which the maximum change in fluorescence had already been observed ([1]; reference dilution series on each plate, adopted as 100% value) [µM] | Compound
30 | 73 to 75 |  | O=C(CN1CCC(Cc2ccccc2)CC1)N[C@H](Cc1c[nH]c2ccccc12)C(=O)NCCc1ccccc1 [Example 7, N1-phenethyl-(2R)-2-[(4-benzylpiperidino)-methyl]-carboxamido-3-(1H-3-indolyl)-propanamide]
57 |  |  | NC(=O)CCC(NC(=O)Cc1cc2ccccc2[nH]1)C(=O)NC(Cc1c[nH]c2ccccc12)C(=O)NCCc1ccccc1 (centres unmarked) [Example 15]
32 |  |  | CC(NC(=O)Cc1cccnc1)C(=O)NC(Cc1c[nH]c2ccccc12)C(=O)NCCc1ccccc1 (centres unmarked) [Example 19]
21 |  |  | O=C(CNCc1ccccc1)NC(Cc1c[nH]c2ccccc12)C(=O)NCCc1ccccc1 (centres unmarked) [Example 21]
2.9 |  |  | O=C(CNCc1ccc(Cl)cc1)NC(Cc1c[nH]c2ccccc12)C(=O)NCCc1ccccc1 (centres unmarked) [Example 22]
21 |  |  | O=C(CNCc1cccnc1)NC(Cc1c[nH]c2ccccc12)C(=O)NCCc1ccccc1 (centres unmarked) [Example 23]
25 |  |  | CC(NCCc1ccccc1)C(=O)NC(Cc1c[nH]c2ccccc12)C(=O)NCCc1ccccc1 (centres unmarked) [Example 26]
3.1 |  |  | O=C(Cc1ccccc1)NNC(=O)NC(Cc1c[nH]c2ccccc12)C(=O)NCCc1ccccc1 (centres unmarked) [Example 27]
0.19 |  |  | O=C(Cc1ccc(Cl)cc1)NNC(=O)NC(Cc1c[nH]c2ccccc12)C(=O)NCCc1ccccc1 (centres unmarked) [Example 28]
2.2 |  |  | O=C(Cc1cc2ccccc2[nH]1)NNC(=O)NC(Cc1c[nH]c2ccccc12)C(=O)NCCc1ccccc1 (centres unmarked) [Example 30]
